Where a name gives a salt, the structure may show the parent alone.
System: Indomethacin-induced Gastric Lesions
Experiment: Reversal of indomethacin-induced gastric lesions (number of macroscopically visible hemorrhagic lesions in the glandular stomach)
Type: in vivo, Male, Sprague-Dawley rats
Conditions: Rattus norvegicus, ip, 6 h, 1 hour before 25 mg/kg oral indomethacin, lesions counted six hours after indomethacin, versus saline control group, read-out: Percent Inhibition; for inhibition in vivo at 50 mg/kg: test compound 50 mg/kg intraperitoneal; for inhibition in vivo at 100 mg/kg: test compound 100 mg/kg intraperitoneal
Description: The methodology for determining the degree of inhibition of gastric lesion formation by the compounds of formula 1 is described below and the results, expressed as percent inhibition, are given in Table 1. Reversal of Indomethacin-induced Gastric Lesions Male, Sprague-Dawley rats weighing 200-225 grams were fasted 24 hours prior to the intraperitoneal administration of the test compounds. The standard screening dosed employed was either 100 or 50 mg/kg. One hour later, the rats were orally administered 25 mg/kg of indomethacin. Both indomethacin and the compounds were suspended in 1% Clearjel ("Instant Clearjel®", a food grade pregelatinized starch from National Starch and Chemical Corporation, New York, N.Y.) or .85% NaCl saline for dosing. Six hours after indomethacin administration, the animals were sacrificed, their stomachs removed, opened along the line of greater curvature, and rinsed with distilled water. The number of macroscopically visible hemmorhagic lesions (dark brown discolorations) in the glandular portion of the stomach was enumerated. […] [table]

Q: Which inhibition in vivo at 50 mg/kg does the source give for COc1ccc(/C=C/c2ccc3c(=O)n(CCN4CCOCC4)ncc3c2)cc1 [Example 4, Trans-6-[2-(4-methoxyphenyl)ethenyl]-2-(2-morpholinoethyl)-phthalazin-1(2H)-one hydrobromide] here?
A: 7%

Q: Which inhibition in vivo at 100 mg/kg does the source give for O=c1[nH]ncc2cc(/C=C/c3ccccc3)ccc12 [Example 12, Trans-6-[2-phenylethenyl]phthalazin-1(2H)-one] here?
A: 43%

Q: CNCCCn1ncc2cc(/C=C/c3ccc(OC)cc3)ccc2c1=O [Example 7, Trans-6-[2-(4-methoxyphenyl)ethenyl]-2-[3-(methylamino)-propyl]phthalazin-1(2H)-one hydrobromide] was tested. Which inhibition in vivo at 50 mg/kg did it give?
A: 79%

Q: With O=c1[nH]ncc2cc(/C=C/c3ccc(O)cc3)ccc12 [Example 11, Trans-6-[2-(4-Hydroxyphenyl)ethenyl]-phthalazin-1(2H)-one] as the molecule, how does the inhibition in vivo at 100 mg/kg read?
A: 45%

Q: With O=c1c2ccc(/C=C/c3ccccc3)cc2cnn1CCO [Example 17, Trans-2-(2-hydroxyethyl)-6-(2-phenylethenyl)-1(2H)-phthalazinone] as the molecule, how does the inhibition in vivo at 100 mg/kg read?
A: 59%

Q: Which inhibition in vivo at 50 mg/kg does the source give for COc1ccc(/C=C\c2ccc3c(=O)n(CCCN(C)C)ncc3c2)cc1 [Example 10, CIs-6-[2-(4-methoxyphenyl)ethenyl]-2-[3-(dimethylamino)propyl]phthalazin-1(2H)-one cyclohexylsulfamate] here?
A: 61%

Q: With COc1ccc(/C=C/c2ccc3c(=O)n(C4CCN(C)CC4)ncc3c2)cc1 [Example 6, Trans-6-[2-(4-methoxyphenyl)ethenyl]-2-(1-methyl-4-piperidinyl)phthalazin-1(2H)-one] as the molecule, how does the inhibition in vivo at 100 mg/kg read?
A: 63%

Q: For CN(C)CCCn1ncc2cc(/C=C/c3ccccc3)ccc2c1=O [Example 16, Trans-2-[3-(dimethylamino)propyl]-6-(2-phenylethenyl)-1(2H)-phthalazinone], which inhibition in vivo at 50 mg/kg is on record?
A: 80%

Q: For COc1ccc(/C=C/c2ccc3c(=O)n(CCCN4CCCCC4)ncc3c2)cc1 [Example 2, Trans-6-[2-(4-methoxyphenyl)ethenyl]-2-(3-piperidinopropyl)-phthalazin-1(2H)-one hydrobromide], which inhibition in vivo at 50 mg/kg is on record?
A: 91%

Q: For COc1ccc(/C=C/c2ccc3c(=O)n(CCCN)ncc3c2)cc1 [Example 8, Trans-6-[2-(4-methoxyphenyl)ethenyl]-2-(3-aminopropyl)-phthalazin-1(2H)-one hydrobromide], which inhibition in vivo at 50 mg/kg is on record?
A: 96%

Q: How did the inhibition in vivo at 50 mg/kg turn out when COc1ccc(/C=C/c2ccc3c(=O)n(CCCN(C)C)ncc3c2)cc1 [Example 13, Trans-6-[2-(4-methoxyphenyl)ethenyl]-2-[3-dimethylamino)-propyl]phthalazin-1(2H)-one hydrobromide] was run?
A: 99%

Q: COc1ccc(/C=C/c2ccc3c(=O)n(CCN(C(C)C)C(C)C)ncc3c2)cc1 [Example 1, Trans-6-[2-(4-methoxyphenyl)ethenyl]-2-[2-(diisopropylamino)-ethyl]phthalazin-1(2H)-one hydrobromide] was tested. Which inhibition in vivo at 100 mg/kg did it give?
A: 92%

Q: Which inhibition in vivo at 50 mg/kg does the source give for CN(C)CCCn1ncc2cc(/C=C/c3ccc(O)cc3)ccc2c1=O [Example 14, Trans-6-[2-(4-hydroxyphenyl)ethenyl]-2-[3-(dimethylamino)-propyl]phthalazin-1(2H)-one hydrochloride] here?
A: 96.3%

Q: COc1ccc(/C=C/c2ccc3c(=O)n(CCCN4CCNCC4)ncc3c2)cc1 [Example 5, Trans-6-[2-(4-methoxyphenyl)ethenyl]-2-[3-(1-piperazino)-propyl]phthalazin-1(2H)-one] was tested. Which inhibition in vivo at 50 mg/kg did it give?
A: 89%

Q: For CN(C)CCn1ncc2cc(/C=C/c3ccc(O)cc3)ccc2c1=O [Example 15, Trans-6-[2-(4-hydroxyphenyl)ethenyl]-2-[2-(dimethylamino)-ethyl]-1(2H)-phthalazinone hydrochloride], which inhibition in vivo at 100 mg/kg is on record?
A: 7.2%

Q: How did the inhibition in vivo at 100 mg/kg turn out when COc1ccc(/C=C/c2ccc3c(=O)n(CCN(C)C)ncc3c2)cc1 [Example 3, Trans-6-[2-(4-methoxyphenyl)ethenyl]-2-[2-(dimethylamino)-ethyl]phthalazin-1(2H)-one hydrobromide] was run?
A: 65%

Q: Which inhibition in vivo at 50 mg/kg does the source give for COc1ccc(/C=C/c2ccc3c(=O)n(CCCCN(C)C)ncc3c2)cc1 [Example 9, Trans-6-[2-(4-methoxyphenyl)ethenyl]-2-[4-(dimethylamino)-butyl]phthalazin-1(2H)-one hydrobromide] here?
A: 85%

Source: EP0309765A2, “1(2H)-Phthalazinones as cytoprotective agents” (FISONS CORPORATION, priority 1987, dated 1989)
